Literature values in patent publication US20230022136A1, “DIFFUSIVITY CONTRAST AGENTS FOR MEDICAL IMAGING” (priority 2020, published 2023).

Conditions: attributed to increased hydrogen bonding of the water molecules

In the case of CC(/C=C/C=C(\C)C(=O)[O-])=C\C=C\C=C(C)\C=C\C=C(/C)C(=O)[O-].[Na+].[Na+] [Trans-Sodium crocetinate], the “increase of the diffusion coefficient of glucose through water” value is listed as 25-30%.
